Where two headings read alike, the source gives them in different places. Marks after values point to notes of the source that are not given here.
How the values were obtained:
[1] = test system: DispersinB; assay type: biochemical, Aggregatibacter actinomycetemcomitans; settings: 50 mM citrate buffer pH 5.9; salt concentration as in label; control with no salts = 100%
Description: Activity of the control sample with no salts was considered 100%.

[2] = test system: DispersinB; settings: pH 5.9; 50 mM Citrate; 100 mM NaCl pH 5.9 control = 100%
Method: DispersinB enzyme solutions (100 μg/ml) were prepared in 50 mM citrate buffer, containing 200 mM K2SO4. The pH was adjusted (5.4 to 5.9). DispersinB enzymatic activity was measured using β-N-Acetylglucosaminidase assay kit from Sigma (product code CS0780) in 96-well microtiter plate following the manufacturer's instructions. The data was represented as % enzymatic activity in comparison to enzyme activity of control sample that contained 100 μg/ml DispersinB in 50 mM citrate buffer (pH 5.9) containing 100 mM NaCl Activity of the control sample was considered 100%.

[3] = test system: DispersinB; test: Effect of buffer and pH on DispersinB enzymatic activity (β-N-Acetylglucosaminidase assay kit); assay type: biochemical, Aggregatibacter actinomycetemcomitans; settings: buffer strength 100 mM, 100 mM NaCl, citrate pH 5.9 = 100%
Method: Lyophilized DispersinB powder was dissolved in selected buffers (citrate, phosphate) of defined pH (5.5 -7.5). The DispersinB concentration was adjusted to 100 μg/ml. Salt concentration was maintained at 100 mM sodium chloride. […] The enzymatic activity was presented as percentages in comparison to enzymatic activity of DispersinB in 100 mM Citrate buffer, 100 mM NaCl, pH 5.9, which was considered 100%.
Enzymatic activity in citrate buffer with a pH of 5.9 was considered 100%. * indicates statistically significant (p<0.05) values in paired two tailed t-test, each treatment was compared with enzymatic activity of DispersinB in corresponding buffer of pH 5.9.

[4] = test system: DispersinB
Method: DispersinB enzyme (100 μg/ml) solutions in 50 mM citrate buffer and phosphate buffer (pH 5.9), with 100 mM NaCl containing EDTA (0.5%-10%) were tested for DispersinB enzymatic activity following β-N-Acetylglucosaminidase assay.

[5] = test system: DispersinB; assay type: biochemical, Aggregatibacter actinomycetemcomitans; settings: for % enzymatic activity of DispersinB (Mean): polyol % as in label
Method: Samples from each formula was incubated at 3 different temperatures (42° C., 52° C. and 62° C.) for 3 hours. Following a 3 hour incubation, the samples were brought to room temperature for enzymatic activity assay.
Two-tailed paired T-test was performed by to compare each polyol containing treatment with the treatment devoid of polyol. Treatment with probability values (p) less than 5% (0.05) was considered significant.

## N.N.O=S(=O)(O)O [100 mM (NH4)2SO4, (NH4)2SO4]
[1]
  % enzymatic activity of DispersinB (Mean): 91%

## [Cl-].[K+] [100 mM KCl, KCl]
[1]
  % enzymatic activity of DispersinB (Mean): 152* %

## O=[N+]([O-])[O-].[K+] [100 mM KNO3, KNO3]
[1]
  % enzymatic activity of DispersinB (Mean): 135* %

## [Cl-].[Li+] [100 mM LiCl, LiCl]
[1]
  % enzymatic activity of DispersinB (Mean): 97%

## [Cl-].[Cl-].[Mg+2] [100 mM MgCl2, MgCl2]
[1]
  % enzymatic activity of DispersinB (Mean): 81* %

## O=S(=O)([O-])[O-].[Mg+2] [100 mM MgSO4, MgSO4]
[1]
  % enzymatic activity of DispersinB (Mean): 87%

## CC(=O)O.N [100 mM NH4 CH2COO, NH4 CH2COO]
[1]
  % enzymatic activity of DispersinB (Mean): 66* %

## Cl.N [100 mM NH4Cl, NH4Cl]
[1]
  % enzymatic activity of DispersinB (Mean): 129* %

## O=S(=O)([O-])[O-].[Na+].[Na+] [100 mM Na2SO4, Na2SO4]
[1]
  % enzymatic activity of DispersinB (Mean): 174* %

## [Cl-].[Na+] [100 mM NaCl, NaCl]
[1]
  % enzymatic activity of DispersinB (Mean): 179* %
[2]
  % Activity: 100.00^b %

## O=C(O)CC(O)(CC(=O)O)C(=O)O [Citrate]
[3]; pH 5.5
  % Enzyme activity: 72* %
[3]; pH 5.9
  % Enzyme activity: 100%
[3]; pH 6
  % Enzyme activity: 76* %
[3]; pH 6.5
  % Enzyme activity: 53* %
[3]; pH 7
  % Enzyme activity: 35* %
[3]; pH 7.5
  % Enzyme activity: 21* %

## O=C(O)CN(CCN(CC(=O)O)CC(=O)O)CC(=O)O [EDTA, Ethylenediaminetetraacetic acid]
[4]; Citrate buffer pH 5.9, 100 mM NaCl, EDTA 0 mg/ml
  % Activity: 100.00%
[4]; Citrate buffer pH 5.9, 100 mM NaCl, EDTA 0.5 mg/ml
  % Activity: 101.45%
[4]; Citrate buffer pH 5.9, 100 mM NaCl, EDTA 1 mg/ml
  % Activity: 95.86%
[4]; Citrate buffer pH 5.9, 100 mM NaCl, EDTA 2.5 mg/ml
  % Activity: 104.19%
[4]; Citrate buffer pH 5.9, 100 mM NaCl, EDTA 9.4 mg/ml
  % Activity: 83.18%
[4]; Phosphate buffer pH 5.9, 100 mM NaCl, EDTA 0 mg/ml
  % Activity: 100.00%
[4]; Phosphate buffer pH 5.9, 100 mM NaCl, EDTA 0.5 mg/ml
  % Activity: 102.52%
[4]; Phosphate buffer pH 5.9, 100 mM NaCl, EDTA 1 mg/ml
  % Activity: 99.78%
[4]; Phosphate buffer pH 5.9, 100 mM NaCl, EDTA 2.5 mg/ml
  % Activity: 91.13%
[4]; Phosphate buffer pH 5.9, 100 mM NaCl, EDTA 9.4 mg/ml
  % Activity: 66.51%
[4]; citrate buffer
  concentrations of EDTA that tend to reduce the enzyme activity: greater than 2.5 mg/ml
[4]; phosphate buffer
  concentrations of EDTA that tend to reduce the enzyme activity: greater than 1 mg/ml

## OC[C@@H](O)[C@H](O)[C@@H](O)CO [xylitol, Xylitol]
[5]; 4° C., freshly made control without polyol = 100%, listed as 0.25% Xylitol
  % enzymatic activity of DispersinB (Mean): 98%
[5]; 4° C., freshly made control without polyol = 100%, listed as 0.5% Xylitol
  % enzymatic activity of DispersinB (Mean): 106%
[5]; 4° C., freshly made control without polyol = 100%, listed as 1% Xylitol
  % enzymatic activity of DispersinB (Mean): 97%
[5]; 4° C., freshly made control without polyol = 100%, listed as 2% Xylitol
  % enzymatic activity of DispersinB (Mean): 117* %
[5]; 4° C., freshly made control without polyol = 100%, listed as 4% Xylitol
  % enzymatic activity of DispersinB (Mean): 120* %
[5]; 4° C., freshly made control without polyol = 100%, listed as 6% Xylitol
  % enzymatic activity of DispersinB (Mean): 115%
[5]; 4° C., freshly made control without polyol = 100%, listed as 8% Xylitol
  % enzymatic activity of DispersinB (Mean): 118%
[5]; 4° C., freshly made control without polyol = 100%, listed as 10% Xylitol
  % enzymatic activity of DispersinB (Mean): 107%
[5]; 4° C., freshly made control without polyol = 100%, listed as 20% Xylitol
  % enzymatic activity of DispersinB (Mean): 91* %
[5]; 4° C., freshly made control without polyol = 100%, listed as 30% Xylitol
  % enzymatic activity of DispersinB (Mean): 85* %
[5]; 4° C., freshly made control without polyol = 100%, listed as 40% Xylitol
  % enzymatic activity of DispersinB (Mean): 86* %
[5]; 42° C. for 3 hours, control without polyol = 100%, listed as 0.25% Xylitol
  % enzymatic activity of DispersinB (Mean): 90%
[5]; 42° C. for 3 hours, control without polyol = 100%, listed as 0.5% Xylitol
  % enzymatic activity of DispersinB (Mean): 85%
[5]; 42° C. for 3 hours, control without polyol = 100%, listed as 1% Xylitol
  % enzymatic activity of DispersinB (Mean): 88%
[5]; 42° C. for 3 hours, control without polyol = 100%, listed as 2% Xylitol
  % enzymatic activity of DispersinB (Mean): 101* %
[5]; 42° C. for 3 hours, control without polyol = 100%, listed as 4% Xylitol
  % enzymatic activity of DispersinB (Mean): 91%
[5]; 42° C. for 3 hours, control without polyol = 100%, listed as 6% Xylitol
  % enzymatic activity of DispersinB (Mean): 97%
[5]; 42° C. for 3 hours, control without polyol = 100%, listed as 8% Xylitol
  % enzymatic activity of DispersinB (Mean): 93%
[5]; 42° C. for 3 hours, control without polyol = 100%, listed as 10% Xylitol
  % enzymatic activity of DispersinB (Mean): 86%
[5]; 42° C. for 3 hours, control without polyol = 100%, listed as 20% Xylitol
  % enzymatic activity of DispersinB (Mean): 80%
[5]; 42° C. for 3 hours, control without polyol = 100%, listed as 30% Xylitol
  % enzymatic activity of DispersinB (Mean): 71* %
[5]; 42° C. for 3 hours, control without polyol = 100%, listed as 40% Xylitol
  % enzymatic activity of DispersinB (Mean): 72* %
[5]; 52° C. for 3 hours, control without polyol = 100%, listed as 0.25% Xylitol
  % enzymatic activity of DispersinB (Mean): 6%
[5]; 52° C. for 3 hours, control without polyol = 100%, listed as 0.5% Xylitol
  % enzymatic activity of DispersinB (Mean): 7%
[5]; 52° C. for 3 hours, control without polyol = 100%, listed as 1% Xylitol
  % enzymatic activity of DispersinB (Mean): 9* %
[5]; 52° C. for 3 hours, control without polyol = 100%, listed as 2% Xylitol
  % enzymatic activity of DispersinB (Mean): 17* %
[5]; 52° C. for 3 hours, control without polyol = 100%, listed as 4% Xylitol
  % enzymatic activity of DispersinB (Mean): 26* %
[5]; 52° C. for 3 hours, control without polyol = 100%, listed as 6% Xylitol
  % enzymatic activity of DispersinB (Mean): 43* %
[5]; 52° C. for 3 hours, control without polyol = 100%, listed as 8% Xylitol
  % enzymatic activity of DispersinB (Mean): 53* %
[5]; 52° C. for 3 hours, control without polyol = 100%, listed as 10% Xylitol
  % enzymatic activity of DispersinB (Mean): 61* %
[5]; 52° C. for 3 hours, control without polyol = 100%, listed as 20% Xylitol
  % enzymatic activity of DispersinB (Mean): 69* %
[5]; 52° C. for 3 hours, control without polyol = 100%, listed as 30% Xylitol
  % enzymatic activity of DispersinB (Mean): 70* %
[5]; 52° C. for 3 hours, control without polyol = 100%, listed as 40% Xylitol
  % enzymatic activity of DispersinB (Mean): 68* %
[5]; 62° C. for 3 hours, control without polyol = 100%, listed as 8% Xylitol
  % enzymatic activity of DispersinB (Mean): 1* %
[5]; 62° C. for 3 hours, control without polyol = 100%, listed as 10% Xylitol
  % enzymatic activity of DispersinB (Mean): 2* %
[5]; 62° C. for 3 hours, control without polyol = 100%, listed as 20% Xylitol
  % enzymatic activity of DispersinB (Mean): 2* %
[5]; 62° C. for 3 hours, control without polyol = 100%, listed as 30% Xylitol
  % enzymatic activity of DispersinB (Mean): 3* %
[5]; 62° C. for 3 hours, control without polyol = 100%, listed as 40% Xylitol
  % enzymatic activity of DispersinB (Mean): 42* %

## Phosphate
[3]; pH 5.5
  % Enzyme activity: 80* %
[3]; pH 5.9
  % Enzyme activity: 100%
[3]; pH 6
  % Enzyme activity: 81* %
[3]; pH 6.5
  % Enzyme activity: 50* %
[3]; pH 7
  % Enzyme activity: 24* %
[3]; pH 7.5
  % Enzyme activity: 12* %

## Propylene glycol
[5]; 4° C., freshly made control without polyol = 100%, listed as Prop. Glycol 2.5%
  % enzymatic activity of DispersinB (Mean): 119* %
[5]; 4° C., freshly made control without polyol = 100%, listed as Prop. Glycol 5%
  % enzymatic activity of DispersinB (Mean): 114* %
[5]; 4° C., freshly made control without polyol = 100%, listed as Prop. Glycol 10%
  % enzymatic activity of DispersinB (Mean): 117* %
[5]; 4° C., freshly made control without polyol = 100%, listed as Prop. Glycol 20%
  % enzymatic activity of DispersinB (Mean): 124* %
[5]; 4° C., freshly made control without polyol = 100%, listed as Prop. Glycol 30%
  % enzymatic activity of DispersinB (Mean): 106%
[5]; 42° C. for 3 hours, control without polyol = 100%, listed as Prop. Glycol 2.5%
  % enzymatic activity of DispersinB (Mean): 109* %
[5]; 42° C. for 3 hours, control without polyol = 100%, listed as Prop. Glycol 5%
  % enzymatic activity of DispersinB (Mean): 93* %
[5]; 42° C. for 3 hours, control without polyol = 100%, listed as Prop. Glycol 10%
  % enzymatic activity of DispersinB (Mean): 95* %
[5]; 42° C. for 3 hours, control without polyol = 100%, listed as Prop. Glycol 20%
  % enzymatic activity of DispersinB (Mean): 46* %
[5]; 42° C., 52° C., and 62° C.
  temperature stabilizing effect on DispersinB at elevated temperatures: did not exhibit temperature stabilizing effects

— patent US20240041991A1, “STABLE LIQUID DISPERSINB COMPOSITIONS” (KANE BIOTECH INC., priority 2020, published 2024)
